For the test, the system named is differentiated 3T3-L1 mouse adipocyte cells. In words: Adipocyte glucose consumption in differentiated 3T3-L1 mouse adipocyte cells (loss of glucose from medium, colorimetric). The class given is cell-based. The conditions noted are these: compound 10 μM, 22 to 24 hours, differentiated 3T3-L1 adipocytes, compound/DMSO, read-out: Glucose consumption (fold change) Mean. The protocol:
Activity of compounds on adipocyte glucose consumption was tested in differentiated 3T3-L1 mouse adipocyte cells. 3T3-L1 preadipocytes (ATCC) were routinely cultured in a growth medium composed of DMEM high-glucose (Sigma), 10% FBS (Gibco), 10 U/ml penicillin and 10 μg/ml streptomycin (P/S; Gibco). To induce adipogenic differentiation, a confluent layer of 3T3-L1 cells were incubated with the growth medium containing 2 μM rosiglitazone, 1 μM dexamethasone, 500 μM IBMX, and 1 μg/ml insulin (Sigma). Forty-eight (48) hours later (on day 2) and on days 4 and 6, medium of the cells was replaced with fresh medium containing 1 μg/ml insulin. On days 8 and 10, the medium was refreshed with regular growth medium and addition of insulin was omitted. On day 11 or 12, medium of the cells were replaced with fresh medium containing either the indicated compounds (10 μM) or the vehicle in which the compounds were dissolved (DMSO). The final concentration of DMSO was 0.1% (v/v). Growth medium containing 0.1% DMSO was incubated in culture wells containing no cells and used as control. Twenty-two to 24 hours later, medium was harvested and subjected to centrifugation at 10,000 g for 5 min. Glucose concentration in the supernatants was determined using a colorimetric assay (Glucose Assay Kit I, Eton Biosciences). Glucose consumption in compound and vehicle treated cells was measured as loss of glucose from the culture medium and represented as mean fold change (compound/DMSO) t standard deviation (SD).
In the case of `CCCCC1CCCc2c1n(Cc1cccc(C(N)=O)c1)c1c(C(=O)O)cccc21` (centres unmarked) [1-butyl-9-[(3-carbamoylphenyl)methyl]-2,3,4,9-tetrahydro-1H-carbazole-8-carboxylic acid], the fold induction at 10 µM amounted to 1.02.
Under `CCCCC1CCCc2c1n(Cc1cccc(C#N)c1)c1c(C(=O)O)cccc21` (centres unmarked) [1-butyl-9-[(3-cyanophenyl)methyl]-2,3,4,9-tetrahydro-1H-carbazole-8-carboxylic acid] stands 1.14.
Under `CCCCC1CCCc2c(n(Cc3cccc(C(N)=O)c3)c3c(C(=O)NCC(=O)O)cccc23)C1` (centres unmarked) [2-({7-butyl-5-[(3-carbamoylphenyl)methyl]-5H,6H,7H,8H,9H,10H-cyclohepta[b]indol-4-yl}formamido)acetic acid] stands 0.9; under `CCCCC1CCCc2c(n(Cc3cccc(C#N)c3)c3c(C(=O)NCC(=O)O)cccc23)C1` (centres unmarked) [2-({7-butyl-5-[(3-cyanophenyl)methyl]-5H,6H,7H,8H,9H,10H-cyclohepta[b]indol-4-yl}formamido)acetic acid], 1.2.
For `CCCCC1Cc2c(n(Cc3cccc(C(N)=O)c3)c3c(C(=O)O)cccc23)C1` (centres unmarked) [2-butyl-4-[(3-carbamoylphenyl)methyl]-1H,2H,3H,4H-cyclopenta[b]indole-5-carboxylic acid], the fold induction at 10 µM is 1.14.
Next, `CCCCC1Cc2c(n(Cc3cccc(C#N)c3)c3c(C(=O)O)cccc23)C1` (centres unmarked) [2-butyl-4-[(3-cyanophenyl)methyl]-1H,2H,3H,4H-cyclopenta[b]indole-5-carboxylic acid]: 1.28.
Next, `CCCCC1CCc2c(n(Cc3cccc(C(N)=O)c3)c3c(C(=O)O)cccc23)C1` (centres unmarked) [2-butyl-9-[(3-carbamoylphenyl)methyl]-2,3,4,9-tetrahydro-1H-carbazole-8-carboxylic acid]: 1.1.
Under `CCCCCCC1CCc2c(n(Cc3ccnc(OC)c3)c3c(C(=O)O)cccc23)C1` (centres unmarked) [2-hexyl-9-[(2-methoxypyridin-4-yl)methyl]-2,3,4,9-tetrahydro-1H-carbazole-8-carboxylic acid] stands 1.19.
`CCCCCCC1CCc2c(n(Cc3ccccc3C)c3c(C(=O)O)cccc23)C1` (centres unmarked) [2-hexyl-9-[(2-methylphenyl)methyl]-2,3,4,9-tetrahydro-1H-carbazole-8-carboxylic acid]: the fold induction at 10 µM worked out at 1.23.
Under `CCCCCCC1CCc2c(n(Cc3cccc(O)c3)c3c(C(=O)O)cccc23)C1` (centres unmarked) [2-hexyl-9-[(3-hydroxyphenyl)methyl]-2,3,4,9-tetrahydro-1H-carbazole-8-carboxylic acid] stands 1.11.
As for `CCCCCCC1CCc2c(n(Cc3cccnc3)c3c(C(=O)O)cccc23)C1` (centres unmarked) [2-hexyl-9-[(pyridin-3-yl)methyl]-2,3,4,9-tetrahydro-1H-carbazole-8-carboxylic acid], the fold induction at 10 µM amounted to 1.21.
Under `CCCCC1CCc2c1n(Cc1cccc(C(N)=O)c1)c1c(C(=O)O)cccc21` (centres unmarked) [3-butyl-4-[(3-carbamoylphenyl)methyl]-1H,2H,3H,4H-cyclopenta[b]indole-5-carboxylic acid] stands 1.15; under `CCCCC1CCc2c1n(Cc1cccc(C#N)c1)c1c(C(=O)O)cccc21` (centres unmarked) [3-butyl-4-[(3-cyanophenyl)methyl]-1H,2H,3H,4H-cyclopenta[b]indole-5-carboxylic acid], 1.21; under `CCCCC1CCc2c(c3cccc(C(=O)O)c3n2Cc2cccc(C(N)=O)c2)C1` (centres unmarked) [3-butyl-9-[(3-carbamoylphenyl)methyl]-2,3,4,9-tetrahydro-1H-carbazole-8-carboxylic acid], 1.09.
For the compound `CCCCC1CCc2c(c3cccc(C(=O)O)c3n2Cc2cccc(C#N)c2)C1` (centres unmarked) [3-butyl-9-[(3-cyanophenyl)methyl]-2,3,4,9-tetrahydro-1H-carbazole-8-carboxylic acid], the fold induction at 10 µM was found to be 1.14.
As for `CCCCCC1Cc2c(n(Cc3cccc(C(N)=O)c3)c3c(C(=O)O)cccc23)C1` (centres unmarked) [4-[(3-carbamoylphenyl)methyl]-2-pentyl-1H,2H,3H,4H-cyclopenta[b]indole-5-carboxylic acid], the fold induction at 10 µM is 0.68.
Next, `CCC1CCc2c1n(Cc1cccc(C(N)=O)c1)c1c(C(=O)O)cccc21` (centres unmarked) [4-[(3-carbamoylphenyl)methyl]-3-ethyl-1H,2H,3H,4H-cyclopenta[b]indole-5-carboxylic acid]: 1.02; `CCCC1CCc2c1n(Cc1cccc(C(N)=O)c1)c1c(C(=O)O)cccc21` (centres unmarked) [4-[(3-carbamoylphenyl)methyl]-3-propyl-1H,2H,3H,4H-cyclopenta[b]indole-5-carboxylic acid]: 1.18; `CCCCCC1Cc2c(n(Cc3cccc(C#N)c3)c3c(C(=O)O)cccc23)C1` (centres unmarked) [4-[(3-cyanophenyl)methyl]-2-pentyl-1H,2H,3H,4H-cyclopenta[b]indole-5-carboxylic acid]: 1.18.
On to `CCC1CCc2c1n(Cc1cccc(C#N)c1)c1c(C(=O)O)cccc21` (centres unmarked) [4-[(3-cyanophenyl)methyl]-3-ethyl-1H,2H,3H,4H-cyclopenta[b]indole-5-carboxylic acid], for which the fold induction at 10 µM was 1.12.
Turning to `CCCC1CCc2c1n(Cc1cccc(C#N)c1)c1c(C(=O)O)cccc21` (centres unmarked) [4-[(3-cyanophenyl)methyl]-3-propyl-1H,2H,3H,4H-cyclopenta[b]indole-5-carboxylic acid], the fold induction at 10 µM came to 1.38.
Under `CCCCC1CCCc2c1c1cccc(C(=O)O)c1n2Cc1cccc(C(N)=O)c1` (centres unmarked) [4-butyl-9-[(3-carbamoylphenyl)methyl]-2,3,4,9-tetrahydro-1H-carbazole-8-carboxylic acid] stands 1.35; under `CCCCC1CCCc2c1c1cccc(C(=O)O)c1n2Cc1cccc(C#N)c1` (centres unmarked) [4-butyl-9-[(3-cyanophenyl)methyl]-2,3,4,9-tetrahydro-1H-carbazole-8-carboxylic acid], 1.28.
Under `CCCCCCC1CCCc2c(n(Cc3ccc4ncoc4c3)c3c(C(=O)O)cccc23)C1` (centres unmarked) [5-[(1,3-benzoxazol-6-yl)methyl]-7-hexyl-5H,6H,7H,8H,9H,10H-cyclohepta[b]indole-4-carboxylic acid] stands 1.17.
Next, `CCCCCCC1CCCc2c(n(Cc3ccccc3C(N)=O)c3c(C(=O)O)cccc23)C1` (centres unmarked) [5-[(2-carbamoylphenyl)methyl]-7-hexyl-5H,6H,7H,8H,9H,10H-cyclohepta[b]indole-4-carboxylic acid]: 0.97; `CCCCCCC1CCCc2c(n(Cc3ccccc3F)c3c(C(=O)O)cccc23)C1` (centres unmarked) [5-[(2-fluorophenyl)methyl]-7-hexyl-5H,6H,7H,8H,9H,10H-cyclohepta[b]indole-4-carboxylic acid]: 1.17; `CCCCCCC1CCCc2c(n(Cc3c(C)noc3C)c3c(C(=O)O)cccc23)C1` (centres unmarked) [5-[(3,5-dimethyl-1,2-oxazol-4-yl)methyl]-7-hexyl-5H,6H,7H,8H,9H,10H-cyclohepta[b]indole-4-carboxylic acid]: 0.95.
As for `CCC1CCCc2c(n(Cc3cccc(C(N)=O)c3)c3c(C(=O)O)cccc23)C1` (centres unmarked) [5-[(3-carbamoylphenyl)methyl]-7-ethyl-5H,6H,7H,8H,9H,10H-cyclohepta[b]indole-4-carboxylic acid], the fold induction at 10 µM was 0.96.
`CCCCCCC1CCCc2c(n(Cc3cccc(C(N)=O)c3)c3c(C(=O)O)cccc23)C1` (centres unmarked) [5-[(3-carbamoylphenyl)methyl]-7-hexyl-5H,6H,7H,8H,9H,10H-cyclohepta[b]indole-4-carboxylic acid]: the fold induction at 10 µM was 1.26.
Regarding `CCCCCCCCC1CCCc2c(n(Cc3cccc(C(N)=O)c3)c3c(C(=O)O)cccc23)C1` (centres unmarked) [5-[(3-carbamoylphenyl)methyl]-7-octyl-5H,6H,7H,8H,9H,10H-cyclohepta[b]indole-4-carboxylic acid], the fold induction at 10 µM was 1.13.
Under `CCCCCC1CCCc2c(n(Cc3cccc(C(N)=O)c3)c3c(C(=O)O)cccc23)C1` (centres unmarked) [5-[(3-carbamoylphenyl)methyl]-7-pentyl-5H,6H,7H,8H,9H,10H-cyclohepta[b]indole-4-carboxylic acid] stands 1.27; under `CCCC1CCCc2c(n(Cc3cccc(C(N)=O)c3)c3c(C(=O)O)cccc23)C1` (centres unmarked) [5-[(3-carbamoylphenyl)methyl]-7-propyl-5H,6H,7H,8H,9H,10H-cyclohepta[b]indole-4-carboxylic acid], 1.06; under `CCC1CCCCc2c1c1cccc(C(=O)O)c1n2Cc1cccc(C(N)=O)c1` (centres unmarked) [5-[(3-carbamoylphenyl)methyl]-10-ethyl-5H,6H,7H,8H,9H,10H-cyclohepta[b]indole-4-carboxylic acid], 0.99.
Under `CCCCCC1CCCCc2c1c1cccc(C(=O)O)c1n2Cc1cccc(C(N)=O)c1` (centres unmarked) [5-[(3-carbamoylphenyl)methyl]-10-pentyl-5H,6H,7H,8H,9H,10H-cyclohepta[b]indole-4-carboxylic acid] stands 1.27.
Under `CCCC1CCCCc2c1c1cccc(C(=O)O)c1n2Cc1cccc(C(N)=O)c1` (centres unmarked) [5-[(3-carbamoylphenyl)methyl]-10-propyl-5H,6H,7H,8H,9H,10H-cyclohepta[b]indole-4-carboxylic acid] stands 1.02.

For the origin of these results see patent US20230331673A1, “COMPOSITION OF COMPOUNDS THAT MODULATE CELL METABOLISM AND METHODS OF USE” (CRESCENTA BIOSCIENCES, priority 2020, published 2023).
